According to PubChem BioAssay AID330 (DTP/NCI, 2004):
Values joined by “and” are separate entries in the source; they are usually repeats but may differ in a detail not shown here. Equal values may be shown once. Toxic doses and inconclusive results are not listed. The calls were made as follows: active = survival T/C of 150% or more; inactive = T/C below 125% in these data.

Test system: P388 leukemia ip, CD2F1 mice, survival T/C
Assay: NCI In Vivo Anticancer Drug Screen. Data for tumor model P388 Leukemia (intraperitoneal) in CD2F1 (CDF1) mice
Details: endpoint: median survival time, higher = longer survival
Outline: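 Mice carrying the transplanted tumor received test compound or vehicle. Survival was recorded in each group, and the value is the treated-group measurement divided by that of the vehicle-treated control group.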

[1] = dose: 30.0 mg/kg/injection, schedule: Q01DX005 (ip), vehicle: saline with Tween-80
[2] = dose: 60.0 mg/kg/injection, schedule: Q01DX005 (ip), vehicle: saline with Tween-80
[3] = dose: 120.0 mg/kg/injection, schedule: Q01DX005 (ip), vehicle: saline with Tween-80
[4] = dose: 50.0 mg/kg/injection, schedule: Q01DX005 (ip), vehicle: saline with Tween-80
[5] = dose: 100.0 mg/kg/injection, schedule: Q01DX005 (ip), vehicle: saline with Tween-80
[6] = dose: 200.0 mg/kg/injection, schedule: Q01DX005 (ip), vehicle: saline with Tween-80
[7] = dose: 240.0 mg/kg/injection, schedule: Q01DX005 (ip), vehicle: saline with Tween-80
[8] = dose: 50.0 mg/kg/injection, schedule: Q01DX009 (ip), vehicle: saline with Tween-80
[9] = dose: 50.0 mg/kg/injection, schedule: Q01DX005 (ip), vehicle: Klucel (hydroxypropylcellulose) (HPC)
[10] = dose: 100.0 mg/kg/injection, schedule: Q01DX005 (ip), vehicle: Klucel (hydroxypropylcellulose) (HPC)
[11] = dose: 200.0 mg/kg/injection, schedule: Q01DX005 (ip), vehicle: Klucel (hydroxypropylcellulose) (HPC)
[12] = dose: 100.0 mg/kg/injection, schedule: Q01DX009 (ip), vehicle: saline with Tween-80
[13] = dose: 50.0 mg/kg/injection, schedule: Q01DX009 (ip), vehicle: saline
[14] = dose: 100.0 mg/kg/injection, schedule: Q01DX009 (ip), vehicle: saline
[15] = dose: 200.0 mg/kg/injection, schedule: Q01DX009 (ip), vehicle: saline

Measured: T/C

CC(C)C1=CC23CCC4C(C)(C(=O)O)CCCC4(C)C2CC1OO3 (stereo unspecified)
inactive: dose: 100.0 mg/kg/injection, schedule: Q01DX009 (ip), vehicle: saline sonified 95 % of control | dose: 200.0 mg/kg/injection, schedule: Q01DX009 (ip), vehicle: saline sonified 100 % of control | dose: 400.0 mg/kg/injection, schedule: Q01DX009 (ip), vehicle: saline sonified 100 % of control

Cc1ccc(/C=C2/N=C([Se])N(C)C2=O)cc1
inactive: dose: 15.0 mg/kg/injection, schedule: Q01DX005 (ip), vehicle: saline with Tween-80 100 % of control | [1] 95 % of control | [2] 101 % of control | [3] 86 % of control

CC(C)CC(NC(=O)C(C)N)C(=O)OC(C)(C)C (stereo unspecified)
inactive: [4] 101 % of control | [5] 102 % of control | [6] 96 % of control

COc1cc(C2c3cc4c(cc3OC3(O)COC(=O)C23)OCO4)cc(OC)c1OC (stereo unspecified)
inactive: [2] 88 % of control | [3] 91 % of control | [7] 86 % of control

Cc1c(C)c(C)c2c(c1C)CCC2O (stereo unspecified)
inactive: dose: 12.5 mg/kg/injection, schedule: Q01DX009 (ip), vehicle: saline with Tween-80 102 % of control and 100 % of control | dose: 25.0 mg/kg/injection, schedule: Q01DX009 (ip), vehicle: saline with Tween-80 105 % of control and 102 % of control | [8] 105 % of control and 100 % of control

c1ccc(Cn2ccnc2)nc1
inactive: dose: 50.0 mg/kg/injection, schedule: Q04DX003 (ip), vehicle: saline 103 % of control | dose: 100.0 mg/kg/injection, schedule: Q04DX003 (ip), vehicle: saline 100 % of control | dose: 200.0 mg/kg/injection, schedule: Q04DX003 (ip), vehicle: saline 101 % of control

CC(O)C(C)(C)S(=O)(=O)CCCc1ccccc1 (stereo unspecified)
inactive: [2] 107 % of control | [3] 107 % of control | [7] 108 % of control

NNC(=O)CS(=O)(=O)Nc1ncccn1
inactive: [9] 100 % of control | [10] 100 % of control | [11] 100 % of control

C[C@H]1[C@H](O)[C@H]2[C@@H](CCC3=CC(=O)CC[C@@]32C)[C@@H]2CC[C@H](O)[C@@]12C
inactive: dose: 100.0 mg/kg/injection, schedule: Q04DX003 (ip), vehicle: saline with Tween-80 104 % of control | dose: 200.0 mg/kg/injection, schedule: Q04DX003 (ip), vehicle: saline with Tween-80 100 % of control | dose: 400.0 mg/kg/injection, schedule: Q04DX003 (ip), vehicle: saline with Tween-80 100 % of control

O=C(Nc1cccc(Cl)c1)OCCCc1ccncc1
inactive: [8] 96 % of control | [12] 96 % of control

CN(/N=C/c1ccc2c(c1)OCO2)c1ccc([N+](=O)[O-])cc1
inactive: [9] 89 % of control | [10] 89 % of control

C=C1CC2(OC1=O)C(C1COC(C)(C)O1)OC1OC(C)(C)OC12 (stereo unspecified)
inactive: dose: 25.0 mg/kg/injection, schedule: Q04DX002 (ip), vehicle: saline 96 % of control | [4] 105 % of control | dose: 50.0 mg/kg/injection, schedule: Q04DX002 (ip), vehicle: saline 99 % of control | [5] 110 % of control | dose: 100.0 mg/kg/injection, schedule: Q04DX002 (ip), vehicle: saline 104 % of control | [6] 105 % of control

CC(=O)NC(c1nc2cc(C)c(C)cc2[nH]1)c1nc2cc(C)c(C)cc2[nH]1
inactive: [9] 101 % of control | [10] 106 % of control | [11] 110 % of control

CC1CCC23COC(=O)C2=CCCC3C12CC(c1ccoc1)OC2=O (stereo unspecified)
inactive: dose: 0.03 mg/kg/injection, schedule: Q01DX009 (ip), vehicle: saline 107 % of control | dose: 0.06 mg/kg/injection, schedule: Q01DX009 (ip), vehicle: saline 104 % of control | dose: 0.12 mg/kg/injection, schedule: Q01DX009 (ip), vehicle: saline 107 % of control | dose: 0.24 mg/kg/injection, schedule: Q01DX009 (ip), vehicle: saline 103 % of control | dose: 0.5 mg/kg/injection, schedule: Q01DX009 (ip), vehicle: Klucel (hydroxypropylcellulose) (HPC) 96 % of control | dose: 1.0 mg/kg/injection, schedule: Q01DX009 (ip), vehicle: Klucel (hydroxypropylcellulose) (HPC) 96 % of control | dose: 2.0 mg/kg/injection, schedule: Q01DX009 (ip), vehicle: Klucel (hydroxypropylcellulose) (HPC) 98 % of control

Cc1ncc(/C=N/O)n1Cc1ccccc1
inactive: [2] 99 % of control | [3] 93 % of control | [7] 90 % of control

CCOc1ccccc1N=Nc1c(-c2ccccc2)nn(C(=S)S)c1-c1ccccc1
inactive: [4] 107 % of control | [5] 109 % of control | [6] 110 % of control

O=C1CN(c2ccccc2)C(=O)C1C(=O)Nc1ccc(Cl)c(Cl)c1 (stereo unspecified)
inactive: [1] 117 % of control | [2] 121 % of control and 123 % of control | [7] 90 % of control

C=C1CC2(CC3C(CC2C)C3(C)C)OC1=O (stereo unspecified)
inactive: dose: 100.0 mg/kg/injection, schedule: Q01DX001 (ip), vehicle: saline 101 % of control | dose: 200.0 mg/kg/injection, schedule: Q01DX001 (ip), vehicle: saline 101 % of control | dose: 400.0 mg/kg/injection, schedule: Q01DX001 (ip), vehicle: saline 104 % of control

COC(=O)c1cccc2c1OCO2
inactive: [12] 100 % of control | dose: 200.0 mg/kg/injection, schedule: Q01DX009 (ip), vehicle: saline with Tween-80 100 % of control | dose: 400.0 mg/kg/injection, schedule: Q01DX009 (ip), vehicle: saline with Tween-80 100 % of control

NC(Cc1ccc[se]1)C(=O)O (stereo unspecified)
inactive: dose: 6.25 mg/kg/injection, schedule: Q01DX005 (ip), vehicle: saline 105 % of control | dose: 12.5 mg/kg/injection, schedule: Q01DX005 (ip), vehicle: saline 99 % of control | dose: 25.0 mg/kg/injection, schedule: Q01DX005 (ip), vehicle: saline with Tween-80 103 % of control | dose: 25.0 mg/kg/injection, schedule: Q01DX005 (ip), vehicle: saline 97 % of control | [4] 94 % of control

C=C(c1ccc(OC)cc1)c1cc(C(C)(C)C)c(O)c(C(C)(C)C)c1
inactive: dose: 50.0 mg/kg/injection, schedule: Q01DX005 (ip), vehicle: saline + Tween-80 + alcohol 101 % of control | dose: 100.0 mg/kg/injection, schedule: Q01DX005 (ip), vehicle: saline + Tween-80 + alcohol 97 % of control | dose: 200.0 mg/kg/injection, schedule: Q01DX005 (ip), vehicle: saline + Tween-80 + alcohol 100 % of control

CC(C)CC(N)CO (stereo unspecified)
inactive: dose: 50.0 mg/kg/injection, schedule: Q01DX005 (ip), vehicle: suspension in saline 105 % of control | dose: 100.0 mg/kg/injection, schedule: Q01DX005 (ip), vehicle: suspension in saline 106 % of control | dose: 200.0 mg/kg/injection, schedule: Q01DX005 (ip), vehicle: suspension in saline 106 % of control

Nc1nc(N)nc(-c2cc(Br)c(N)c(Br)c2)n1
inactive: [4] 95 % of control | [5] 101 % of control | [6] 93 % of control

COc1ccc2ccc3c(c2c1)C(=O)C(CC(N)=O)C3 (stereo unspecified)
inactive: dose: 12.5 mg/kg/injection, schedule: Q01DX009 (ip), vehicle: distilled water + Tween-80 97 % of control | dose: 25.0 mg/kg/injection, schedule: Q01DX009 (ip), vehicle: distilled water + Tween-80 93 % of control | dose: 50.0 mg/kg/injection, schedule: Q01DX009 (ip), vehicle: distilled water + Tween-80 92 % of control | dose: 200.0 mg/kg/injection, schedule: Q01DX009 (ip), vehicle: distilled water + Tween-80 93 % of control

O=C(Nc1cc(Cl)ccc1Cl)Oc1ccc(Cl)cc1C(=O)c1ccccc1
inactive: [13] 102 % of control | [14] 97 % of control | [15] 89 % of control

CCOC(=O)CNC1=NCCO1
inactive: [13] 109 % of control | [14] 107 % of control | [15] 102 % of control | dose: 400.0 mg/kg/injection, schedule: Q01DX009 (ip), vehicle: saline 106 % of control

O=C(Cc1ccccc1)NCCN1CCNCC1
inactive: dose: 100.0 mg/kg/injection, schedule: Q01DX001 (ip), vehicle: saline with Tween-80 105 % of control | dose: 200.0 mg/kg/injection, schedule: Q01DX001 (ip), vehicle: saline with Tween-80 108 % of control | dose: 400.0 mg/kg/injection, schedule: Q01DX001 (ip), vehicle: saline with Tween-80 96 % of control
